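Five compound concentrations were applied to cells in 96-well plates for 48 hours; endpoints were derived by simple linear interpolation of the resulting dose-response curve. TGI marks complete inhibition of growth.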
How the values were obtained:
Assay in all cases: NCI tumour cell line growth inhibition, 48 h
[1] = system: UACC-62 melanoma
[2] = system: LOX IMVI melanoma
[3] = system: A549 NSCLC
[4] = system: NCI-H522 lung
[5] = system: 786-0 renal
[6] = system: ACHN renal
[7] = system: BT-549 breast
[8] = system: SF-295 CNS
[9] = system: SK-OV-3 ovarian
[10] = system: MALME-3M melanoma
[11] = system: NCI-H226 lung
[12] = system: KM12 colon
[13] = system: HT29 colon
[14] = system: SK-MEL-2 melanoma
[15] = system: LXFL 529 NSCLC
[16] = system: OVCAR-4 ovarian
[17] = system: IGROV1 ovarian
[18] = system: HCC-2998 colon
[19] = system: MDA-N
[20] = system: M19-MEL melanoma
[21] = system: MCF7 breast
[22] = system: SK-MEL-5 melanoma
[23] = system: EKVX NSCLC
[24] = system: NCI-H460 lung
[25] = system: SNB-75 CNS
[26] = system: SK-MEL-28 melanoma
[27] = system: T-47D breast
[28] = system: PC-3 prostate
[29] = system: KM20L2 colon
[30] = system: OVCAR-3 ovarian
[31] = system: SR leukemia
[32] = system: MDA-MB-435
[33] = system: SNB-78 CNS
[34] = system: DLD-1 colon
[35] = system: RXF-631 renal
[36] = system: MDA-MB-231 breast
[37] = system: CCRF-CEM leukemia
[38] = system: OVCAR-5 ovarian
[39] = system: UACC-257 melanoma
[40] = system: SW-620 colon
[41] = system: U251 CNS
[42] = system: M14 melanoma
[43] = system: DMS 273 small cell lung
[44] = system: XF 498 CNS
[45] = system: NCI-H23 lung
[46] = system: RPMI-8226 leukemia
[47] = system: HOP-18 NSCLC
[48] = system: DMS 114 small cell lung
[49] = system: CAKI-1 renal
[50] = system: SN12C renal
[51] = system: MOLT-4 leukemia
[52] = system: HCT-15 colon
[53] = system: A498 renal
[54] = system: UO-31 renal
[55] = system: TK-10 renal
[56] = system: OVCAR-8 ovarian
[57] = system: K-562 leukemia
[58] = system: SF-268 CNS
[59] = system: SNB-19 CNS
[60] = system: SF-539 CNS
[61] = system: RXF 393 renal
[62] = system: HCT-116 colon
[63] = system: NCI/ADR-RES ovarian
[64] = system: HL-60(TB) leukemia
[65] = system: HOP-62 NSCLC
[66] = system: COLO 205 colon
[67] = system: DU-145 prostate
[68] = system: HS 578T breast

Structure (SMILES): C/C1=C/C2OC(=O)C3(C)C2C(CC2(C)OC1=CC2=O)OC3(O)C(C)C (stereo not drawn)
- TGI [1]: 56.4 µM
- TGI [2]: > 100 µM
- TGI [3]: > 100 µM
- TGI [4]: 35.7 µM
- TGI [5]: > 69.3 µM
- TGI [6]: > 100 µM
- TGI [7]: 24.9 µM
- TGI [8]: > 78.7 µM
- TGI [9]: > 100 µM
- TGI [10]: 77.8 µM
- TGI [11]: > 78.6 µM
- TGI [12]: > 60.3 µM
- TGI [13]: > 66.9 µM
- TGI [14]: > 84.6 µM
- TGI [15]: 93.1 µM
- TGI [16]: > 55.3 µM
- TGI [17]: > 84.5 µM
- TGI [18]: 48.8 µM
- TGI [19]: > 100 µM
- TGI [20]: > 100 µM
- TGI [21]: > 100 µM
- TGI [22]: 55 µM
- TGI [23]: > 100 µM
- TGI [24]: > 100 µM
- TGI [25]: > 100 µM
- TGI [26]: > 100 µM
- TGI [27]: > 100 µM
- TGI [28]: > 100 µM
- TGI [29]: 43.2 µM
- TGI [30]: > 64.9 µM
- TGI [31]: 65.7 µM
- TGI [32]: > 100 µM
- TGI [33]: > 100 µM
- TGI [34]: 87.8 µM
- TGI [35]: > 100 µM
- TGI [36]: > 100 µM
- TGI [37]: > 73.4 µM
- TGI [38]: > 79.3 µM
- TGI [39]: > 75.1 µM
- TGI [40]: 67.4 µM
- TGI [41]: > 54 µM
- TGI [42]: > 100 µM
- TGI [43]: > 100 µM
- TGI [44]: 41 µM
- TGI [45]: > 54.1 µM
- TGI [46]: > 86.1 µM
- TGI [47]: > 100 µM
- TGI [48]: 29.6 µM
- TGI [49]: 62 µM
- TGI [50]: > 71.4 µM
- TGI [51]: > 100 µM
- TGI [52]: > 63.1 µM
- TGI [53]: > 100 µM
- TGI [54]: > 100 µM
- TGI [55]: > 100 µM
- TGI [56]: > 62.4 µM
- TGI [57]: > 100 µM
- TGI [58]: > 65.9 µM
- TGI [59]: > 74.4 µM
- TGI [60]: > 89.6 µM
- TGI [61]: > 70.5 µM
- TGI [62]: > 100 µM
- TGI [63]: > 100 µM
- TGI [64]: 54.9 µM
- TGI [65]: > 100 µM
- TGI [66]: > 73 µM
- TGI [67]: > 100 µM
- TGI [68]: > 100 µM
